Results on two compounds are retold here after patent US20100099871A1, “ANTI-PSYCHOTIC COMPOUNDS AND PHARMACEUTICAL COMPOSITIONS THEREOF” (priority 2008, published 2010).

The target of experiment [1] is Alpha 2B (Homo sapiens, UniProt P18089). The experiment in a line: In vitro receptor binding, Alpha 2B. The following applies: given in words, no number. Here is the method:
(§1) Three of the compounds predicted to display antipsychotic activity have been synthesized and characterized. Once compounds meeting selection criteria of the spectral models were identified, confirmatory in vitro screening and cross-screening were conducted. For example, receptor binding studies were conducted for 5-HT1A, 5-HT2A, 5-HT2C, 5-HT6, 5-HT7, α1A, α1B, α1D, α2A, α2B, α2C, D2, H1, M1, M2, M3, M4, and M5 to further determine a broad pharmacological profile for compounds meeting spectral modeling selection criteria. Synthesis and characterization of these compounds is provided as an Experimental Example. […] For D2 and 5-HT2A receptors, experimental results were within 11% of predicted values. […] In some embodiments, the compounds are selective for 5-HT2A over D2. […] As such the compounds are advantageous over clozapine and may be beneficial for treating psychotic conditions, such as schizophrenia.

In experiment [2] the target is M2 (Homo sapiens, UniProt P08172). The experiment in a line: In vitro receptor binding, M2. To be noted: read-out: In vitro testing data (receptor binding affinity), M2. Here is the method:
as §1

The target of experiment [3] is 5-HT7 (Homo sapiens, UniProt P34969). The experiment in a line: In vitro receptor binding, 5-HT7. To be noted: read-out: In vitro testing data (receptor binding affinity), 5-HT7. Here is the method:
as §1

In experiment [4] the target is Alpha 2C (Homo sapiens, UniProt P18825). The experiment in a line: In vitro receptor binding, Alpha 2C. To be noted: given in words, no number. Here is the method: as §1
For experiment [5], the target named is 5-HT1a (Homo sapiens, UniProt P08908). The experiment is described as follows: In vitro receptor binding, 5-HT1a. The following applies: given in words, no number. Here is the method:
as §1

The test system of experiment [6] is nucleus accumbens dopamine release. The experiment in a line: In vivo microdialysis, nucleus accumbens dopamine release. The following applies: rat microdialysis; ceiling effect, increasing dose gave no additional release (FIG. 12). The arrangement: species or system male Sprague-Dawley rats. Here is the method:
(§2) In vivo microdialysis studies were conducted according to established methods. In summary, two cannulae with microdialysis probes were implanted via stereotaxic surgery (one each into two separate brain regions), into the medial prefrontal cortex and nucleus accumbens of male Sprague-Dawley rats weighing from 250 g to 300 g. After recovery from surgery, a solution was circulated through the probes on test days collecting extracellular synaptic fluid at 30-minute intervals and delivering it to an HPLC for analysis of extracellular dopamine concentrations in real time following antipsychotic compound dosing. Simultaneously, an aliquot was taken and frozen for later mass spectrometric determination of acetylcholine concentrations.

Experiment [7] addresses M3 (Homo sapiens, UniProt P20309). The experiment in a line: In vitro receptor binding, M3. The following applies: read-out: In vitro testing data (receptor binding affinity), M3. On the procedure: as §1
Experiment [8] addresses 5-HT2c (Homo sapiens, UniProt P28335). The experiment in a line: In vitro receptor binding, 5-HT2c. To be noted: read-out: In vitro testing data (receptor binding affinity), 5-HT2c. On the procedure: as §1
Experiment [9] concerns the target Alpha 1A (Homo sapiens, UniProt P35348). The experiment in a line: In vitro receptor binding, Alpha 1A. The following applies: given in words, no number. Here is the method: as §1
The subject of experiment [10] is pre-frontal cortex dopamine release. The experiment in a line: In vivo microdialysis, pre-frontal cortex dopamine release. Set-up: species or system male Sprague-Dawley rats. To be noted: rat microdialysis. Here is the method:
as §2

Experiment [11] addresses D2 (Homo sapiens, UniProt P14416). The experiment in a line: In vitro receptor binding, D2. The following applies: read-out: In vitro testing data (receptor binding affinity), D2. On the procedure: as §1
Experiment [12] addresses 5-HT6 (Homo sapiens, UniProt P50406). The experiment is described as follows: In vitro receptor binding, 5-HT6. The following applies: read-out: In vitro testing data (receptor binding affinity), 5-HT6. Here is the method:
as §1

For experiment [13], the target named is Alpha 1D (Homo sapiens, UniProt P25100). The experiment is described as follows: In vitro receptor binding, Alpha 1D. To be noted: given in words, no number. On the procedure: as §1
Alpha 1D, sequence (P25100 whole entry): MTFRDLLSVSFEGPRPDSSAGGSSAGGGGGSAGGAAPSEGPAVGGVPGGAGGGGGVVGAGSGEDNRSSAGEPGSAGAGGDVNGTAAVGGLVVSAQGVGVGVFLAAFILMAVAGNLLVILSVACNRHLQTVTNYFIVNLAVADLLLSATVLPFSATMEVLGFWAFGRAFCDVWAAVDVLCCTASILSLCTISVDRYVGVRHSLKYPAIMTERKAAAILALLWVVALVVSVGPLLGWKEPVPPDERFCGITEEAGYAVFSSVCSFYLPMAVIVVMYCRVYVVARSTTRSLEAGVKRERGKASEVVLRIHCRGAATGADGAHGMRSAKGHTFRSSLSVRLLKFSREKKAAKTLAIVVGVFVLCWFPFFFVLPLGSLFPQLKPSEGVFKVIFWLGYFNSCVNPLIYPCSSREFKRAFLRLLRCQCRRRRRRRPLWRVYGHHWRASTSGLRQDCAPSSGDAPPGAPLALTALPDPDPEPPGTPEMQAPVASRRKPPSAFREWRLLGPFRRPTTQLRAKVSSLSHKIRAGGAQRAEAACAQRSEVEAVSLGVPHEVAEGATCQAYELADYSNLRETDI
Experiment [14] deals with M4 (Homo sapiens, UniProt P08173). The experiment in a line: In vitro receptor binding, M4. The following applies: read-out: In vitro testing data (receptor binding affinity), M4. On the procedure: as §1
The target of experiment [15] is 5-HT2a (Homo sapiens, UniProt P28223). The experiment in a line: In vitro receptor binding, 5-HT2a. To be noted: read-out: In vitro testing data (receptor binding affinity), 5-HT2a. Here is the method: as §1
Experiment [16] concerns the target H1 (Homo sapiens, UniProt P35367). The experiment is described as follows: In vitro receptor binding, H1. To be noted: read-out: In vitro testing data (receptor binding affinity), H1. On the procedure: as §1
The test system of experiment [17] is pre-frontal cortex acetylcholine release. The experiment is described as follows: In vivo microdialysis, pre-frontal cortex acetylcholine release. Set-up: species or system male Sprague-Dawley rats. To be noted: rat microdialysis (FIG. 13); LMD-00100t at the maximum dose tested, data not shown. On the procedure: as §2
Experiment [18] concerns the target Alpha 2A (Homo sapiens, UniProt P08913). The experiment in a line: In vitro receptor binding, Alpha 2A. To be noted: given in words, no number. Here is the method:
as §1

For experiment [19], the target named is M1 (Homo sapiens, UniProt P11229). The experiment in a line: In vitro receptor binding, M1. The following applies: read-out: In vitro testing data (receptor binding affinity), M1. On the procedure:
as §1

In experiment [20] the target is M5 (Homo sapiens, UniProt P08912). The experiment is described as follows: In vitro receptor binding, M5. To be noted: read-out: In vitro testing data (receptor binding affinity), M5. On the procedure:
as §1

Experiment [21] deals with Alpha 1B (Homo sapiens, UniProt P35368). The experiment is described as follows: In vitro receptor binding, Alpha 1B. The following applies: given in words, no number. On the procedure: as §1
Alpha 1B, sequence (P35368 whole entry): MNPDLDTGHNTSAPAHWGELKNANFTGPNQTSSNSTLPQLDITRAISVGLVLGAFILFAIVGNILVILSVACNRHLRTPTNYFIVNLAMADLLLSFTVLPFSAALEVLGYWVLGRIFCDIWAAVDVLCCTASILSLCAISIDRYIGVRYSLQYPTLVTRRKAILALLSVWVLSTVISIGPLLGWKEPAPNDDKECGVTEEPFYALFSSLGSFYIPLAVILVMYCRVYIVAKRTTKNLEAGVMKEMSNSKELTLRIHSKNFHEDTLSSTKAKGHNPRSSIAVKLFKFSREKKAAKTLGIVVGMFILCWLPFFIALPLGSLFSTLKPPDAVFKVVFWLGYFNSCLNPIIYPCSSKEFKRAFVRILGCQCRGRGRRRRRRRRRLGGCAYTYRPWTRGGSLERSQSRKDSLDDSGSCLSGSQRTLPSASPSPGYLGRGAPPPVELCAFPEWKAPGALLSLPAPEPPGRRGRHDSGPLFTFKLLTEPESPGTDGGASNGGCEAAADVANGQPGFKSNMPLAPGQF

Alpha 1A, sequence (P35348 whole entry): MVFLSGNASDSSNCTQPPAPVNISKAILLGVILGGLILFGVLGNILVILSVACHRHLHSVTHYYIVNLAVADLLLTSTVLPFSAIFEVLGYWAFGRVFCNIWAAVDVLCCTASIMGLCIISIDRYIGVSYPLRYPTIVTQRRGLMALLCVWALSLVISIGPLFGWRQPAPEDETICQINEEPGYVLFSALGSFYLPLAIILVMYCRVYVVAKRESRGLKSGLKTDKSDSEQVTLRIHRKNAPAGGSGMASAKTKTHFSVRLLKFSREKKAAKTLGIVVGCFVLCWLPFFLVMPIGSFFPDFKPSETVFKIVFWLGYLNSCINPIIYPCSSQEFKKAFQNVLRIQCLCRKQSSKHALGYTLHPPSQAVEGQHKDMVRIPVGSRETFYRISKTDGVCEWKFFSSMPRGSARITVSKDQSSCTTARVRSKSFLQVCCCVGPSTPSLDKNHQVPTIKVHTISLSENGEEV
M3, sequence (P20309 whole entry): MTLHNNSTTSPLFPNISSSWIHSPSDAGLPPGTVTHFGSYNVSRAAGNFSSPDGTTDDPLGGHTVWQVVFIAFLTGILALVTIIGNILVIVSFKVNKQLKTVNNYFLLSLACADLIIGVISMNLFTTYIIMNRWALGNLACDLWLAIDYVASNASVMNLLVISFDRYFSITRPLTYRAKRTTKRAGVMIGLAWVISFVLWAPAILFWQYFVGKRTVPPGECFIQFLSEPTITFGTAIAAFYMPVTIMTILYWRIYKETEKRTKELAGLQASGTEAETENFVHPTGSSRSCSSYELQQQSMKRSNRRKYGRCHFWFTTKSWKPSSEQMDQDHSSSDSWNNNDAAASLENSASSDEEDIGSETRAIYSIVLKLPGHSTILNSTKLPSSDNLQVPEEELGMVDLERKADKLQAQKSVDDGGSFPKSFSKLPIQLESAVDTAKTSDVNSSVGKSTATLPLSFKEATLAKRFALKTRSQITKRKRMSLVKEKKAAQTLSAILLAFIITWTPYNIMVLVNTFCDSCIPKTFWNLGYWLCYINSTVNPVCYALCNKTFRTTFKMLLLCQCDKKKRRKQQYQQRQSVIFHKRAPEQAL
M1, sequence (P11229 whole entry): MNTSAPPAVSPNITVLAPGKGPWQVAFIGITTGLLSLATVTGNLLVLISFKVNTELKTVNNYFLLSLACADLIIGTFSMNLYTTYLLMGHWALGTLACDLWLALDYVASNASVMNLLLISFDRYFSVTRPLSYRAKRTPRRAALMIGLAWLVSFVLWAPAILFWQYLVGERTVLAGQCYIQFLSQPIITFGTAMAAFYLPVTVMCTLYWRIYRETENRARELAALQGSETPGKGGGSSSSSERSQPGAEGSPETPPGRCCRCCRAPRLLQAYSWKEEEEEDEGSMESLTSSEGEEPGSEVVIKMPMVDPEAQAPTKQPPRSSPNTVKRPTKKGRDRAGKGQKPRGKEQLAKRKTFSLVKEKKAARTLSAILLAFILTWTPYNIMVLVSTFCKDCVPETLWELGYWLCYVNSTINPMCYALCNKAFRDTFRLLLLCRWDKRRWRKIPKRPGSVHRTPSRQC
5-HT7, sequence (P34969 whole entry, species assumed): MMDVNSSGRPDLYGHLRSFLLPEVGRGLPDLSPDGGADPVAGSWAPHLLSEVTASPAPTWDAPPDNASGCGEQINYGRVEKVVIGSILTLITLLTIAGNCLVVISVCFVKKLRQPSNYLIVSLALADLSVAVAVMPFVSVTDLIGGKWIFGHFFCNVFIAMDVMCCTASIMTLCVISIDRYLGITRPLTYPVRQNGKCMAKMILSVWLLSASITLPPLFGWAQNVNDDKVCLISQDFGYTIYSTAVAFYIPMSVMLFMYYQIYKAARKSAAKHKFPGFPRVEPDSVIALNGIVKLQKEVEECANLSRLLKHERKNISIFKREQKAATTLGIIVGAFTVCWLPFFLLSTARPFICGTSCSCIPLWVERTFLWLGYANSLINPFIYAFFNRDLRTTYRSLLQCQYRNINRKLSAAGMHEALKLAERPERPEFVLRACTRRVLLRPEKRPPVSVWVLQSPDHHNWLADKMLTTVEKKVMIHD
D2, sequence (P14416 whole entry): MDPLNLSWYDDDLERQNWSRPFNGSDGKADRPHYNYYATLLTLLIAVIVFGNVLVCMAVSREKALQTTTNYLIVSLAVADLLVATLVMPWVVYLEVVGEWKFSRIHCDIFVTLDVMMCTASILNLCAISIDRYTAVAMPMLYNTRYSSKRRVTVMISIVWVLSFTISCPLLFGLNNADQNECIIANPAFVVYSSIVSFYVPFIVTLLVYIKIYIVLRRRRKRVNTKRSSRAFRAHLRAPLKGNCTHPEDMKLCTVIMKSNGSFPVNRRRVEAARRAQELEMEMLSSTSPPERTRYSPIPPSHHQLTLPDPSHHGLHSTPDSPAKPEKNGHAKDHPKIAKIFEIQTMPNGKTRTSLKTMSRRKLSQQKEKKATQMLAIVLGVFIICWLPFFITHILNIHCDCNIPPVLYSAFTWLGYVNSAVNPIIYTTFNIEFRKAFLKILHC
Alpha 2A, sequence (P08913 whole entry): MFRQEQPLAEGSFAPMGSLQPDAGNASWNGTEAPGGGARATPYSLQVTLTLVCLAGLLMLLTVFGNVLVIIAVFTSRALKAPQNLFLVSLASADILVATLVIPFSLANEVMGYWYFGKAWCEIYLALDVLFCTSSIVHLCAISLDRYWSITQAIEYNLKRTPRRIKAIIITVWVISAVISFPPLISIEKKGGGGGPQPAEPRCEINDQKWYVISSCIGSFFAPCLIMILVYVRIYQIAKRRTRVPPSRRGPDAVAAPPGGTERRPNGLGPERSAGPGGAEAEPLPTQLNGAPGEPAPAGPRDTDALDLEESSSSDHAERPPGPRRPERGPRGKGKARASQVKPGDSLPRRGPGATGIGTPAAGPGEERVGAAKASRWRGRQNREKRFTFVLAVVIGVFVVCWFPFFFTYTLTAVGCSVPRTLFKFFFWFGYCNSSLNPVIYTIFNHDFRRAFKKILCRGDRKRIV
5-HT2c, sequence (P28335 33-458, species assumed): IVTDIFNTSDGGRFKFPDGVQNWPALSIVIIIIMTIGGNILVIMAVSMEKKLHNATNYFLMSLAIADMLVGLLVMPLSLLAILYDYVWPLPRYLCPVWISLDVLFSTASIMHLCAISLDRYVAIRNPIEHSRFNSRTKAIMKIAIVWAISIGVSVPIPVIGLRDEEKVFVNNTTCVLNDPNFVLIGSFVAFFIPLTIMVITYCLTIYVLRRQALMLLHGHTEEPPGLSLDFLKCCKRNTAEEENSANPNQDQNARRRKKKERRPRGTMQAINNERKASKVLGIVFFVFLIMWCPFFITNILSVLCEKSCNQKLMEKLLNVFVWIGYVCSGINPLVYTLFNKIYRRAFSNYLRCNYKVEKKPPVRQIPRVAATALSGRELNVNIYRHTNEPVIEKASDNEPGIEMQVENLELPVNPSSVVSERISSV
H1, sequence (P35367 whole entry): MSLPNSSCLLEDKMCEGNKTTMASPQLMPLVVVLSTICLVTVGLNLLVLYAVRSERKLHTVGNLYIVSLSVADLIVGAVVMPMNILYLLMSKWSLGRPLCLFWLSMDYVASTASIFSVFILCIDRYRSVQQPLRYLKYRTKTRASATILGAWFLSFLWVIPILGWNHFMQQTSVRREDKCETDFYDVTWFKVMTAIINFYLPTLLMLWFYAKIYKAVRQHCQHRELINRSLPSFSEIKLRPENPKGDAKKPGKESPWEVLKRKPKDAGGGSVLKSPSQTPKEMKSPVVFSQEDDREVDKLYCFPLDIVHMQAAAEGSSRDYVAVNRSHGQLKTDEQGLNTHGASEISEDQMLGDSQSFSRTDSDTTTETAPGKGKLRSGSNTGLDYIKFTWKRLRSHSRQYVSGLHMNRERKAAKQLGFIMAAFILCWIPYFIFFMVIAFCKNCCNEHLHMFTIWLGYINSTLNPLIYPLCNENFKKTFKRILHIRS

In the case of `CN1CCN(CCN2c3ccccc3Cc3ccccc32)CC1` [LMD-00076], the “In vitro testing data, Alpha 2B (yes)” value in experiment [1] was “yes”. Also, the Kd worked out at 3330 nM in experiment [2]; 1140 nM in experiment [3]; 702 nM in experiment [7]; 968 nM in [8]; 692 nM in experiment [11]; 652 nM in experiment [12]. The Kd in experiment [14] came to 1100 nM; in [15] it was 249 nM; in experiment [16], 185 nM; in experiment [19], 707 nM; in experiment [20] it was 419 nM. The “In vitro testing data, Alpha 2C (yes)” value in [4] was “yes”. Besides, in experiment [5], the “In vitro testing data, 5-HT1a (yes / dash)” value was “yes”. Moreover, the “nucleus accumbens dopamine release” value in experiment [6] is reported as “modest increase”. Further, the “In vitro testing data, Alpha 1A (yes)” value in experiment [9] is on record as “yes”. In addition, in [10] (5-HT1A silent antagonist WAY 100635 co-dosed with LMD-00076 (FIG. 11, curve labeled control)), the “pre-frontal cortex dopamine efflux on co-dosing with WAY 100635” value is given as “blocked”. Moreover, the “pre-frontal cortex dopamine release” value in experiment [10] (as a function of time following administration (FIG. 11, FIG. 14)) was “dose-dependent”. In addition, the “In vitro testing data, Alpha 1D (yes)” value in experiment [13] is recorded as “yes”. For the same compound, in experiment [17], the “cortical acetylcholine (ACh) efflux” value was “significant increase”. Besides, the “In vitro testing data, Alpha 2A (yes)” value in experiment [18] is “yes”. In [21], the “In vitro testing data, Alpha 1B (yes)” value is “yes”.

For `CCN1CCN(CCN2c3ccccc3Cc3ccccc32)CC1` [LMD-00060], in experiment [1], the “In vitro testing data, Alpha 2B (yes)” value was “yes”. Further, the Kd in experiment [2] is over 10000 nM; in experiment [3], 1060 nM; in [7], 2490 nM; in [8] it was 2740 nM; in experiment [11], 632 nM; in experiment [12] it was 1520 nM. For the same compound, the Kd stood at 1910 nM in [14]; 349 nM in [15]; 255 nM in experiment [16]; 1360 nM in [19]; 613 nM in [20]. Further, the “In vitro testing data, Alpha 2C (yes)” value in [4] is listed as “yes”. For the same compound, the “In vitro testing data, Alpha 1A (yes)” value in [9] was “yes”. Besides, in experiment [13], the “In vitro testing data, Alpha 1D (yes)” value is “yes”. For the same compound, in [18], the “In vitro testing data, Alpha 2A (yes)” value is reported as “yes”. For the same compound, the “In vitro testing data, Alpha 1B (yes)” value in experiment [21] is given as “yes”.
